# Like-named read-outs stand apart in the source and are kept apart here.
# Experiments:
# [1] = format: physicochemical
# Protocol: (§1) For the examples below, turbidity is reported in NTUs and was measured at 20±2° C. using a Hach 2100AN Turbidimeter. The instrument was calibrated using a STABLCAL Calibration Kit including samples having turbidities ranging from 0.1 NTU to 7500 NTU. Test samples were measured in a Turbidimeter glass vial and NTU values were read after a 30 second stabilization period.
# Suspensions of 1 weight percent rebaudioside D in water at ambient temperature were prepared in five individual beakers. Rebaudioside A, stevioside, rebaudioside C, and rebaudioside M were added to each of the first four beakers, respectively, such that that the resulting weight ratio of rebaudioside D to the added steviol glycoside was 1:5. As a control, no additional steviol glycoside was added to the fifth beaker.
# After stirring, turbidity measurements were taken from each of the five samples and graphed. According to the turbidity measurements, rebaudiosides A and M had no effect on rebaudioside D solubility.
# [2] = format: physicochemical; remark: listed apart in the source
# Protocol: as §1
# Varying concentrations of rebaudioside A, rebaudioside C, rebaudioside B, and rebaudioside M were then added individually to the stevioside/rebaudioside D solutions at 70° C. The solutions were allowed to cool to room temperature. Each sample's appearance was noted and turbidity measurements were taken to track solubility.
# [3] = Example 4: temperature and low shear mixing (turbidity, HPLC of supernatant); format: physicochemical
# Protocol: This study was conducted with a 5:1 mixture (weight/weight) of rebaudioside A and rebaudioside D and a 5:1 mixture (weight/weight) of a rebaudioside A composition and rebaudioside D, wherein the rebaudioside A composition included 30 weight percent stevioside.
# The described blends were individually combined with water to produce compositions having rebaudioside D concentrations of 1.4 weight percent based on the total mass of the mixture, including water. The mixtures were then mixed under low shear for 10 minutes at ambient temperature (21° C.). A 100 g sample was removed and centrifuged, and the resulting supernatant was analyzed for turbidity and rebaudioside A and D concentration (HPLC).
# The mixtures were then warmed to 45° C. and mixed for 10 minutes. Another 100 g sample was removed and analyzed as described above.
# The mixtures were finally warmed to 65° C. and mixed for 10 minutes. Another 100 g sample was removed an analyzed as described above.
# This experiment was repeated with 10:1 mixtures of the compositions described above, wherein the final rebaudioside D concentration in each of the compositions was 1.43 weight percent, based on the total mass of the composition, including water.
# [4] = Example 2: rebaudioside D solubility at elevated temperatures (turbidity); format: physicochemical
# Protocol: as §1
# The samples prepared in Example 1 were heated to 70° C. and turbidity was measured again. At 70° C., the 0.5 weight percent rebaudioside D sample was soluble. But the 1 and 1.5 weight percent rebaudioside D samples continued to show maximum turbidity (about 12,000 NTU).
# [5] = format: physicochemical; remark: listed apart in the source
# Protocol: Rebaudioside D has a better sugar character and taste profile than Rebaudioside A, but only about 200 ppm Rebaudioside D can be solubilized in water at 23° C. after about 30 minutes stirring. While up to about 450 ppm rebaudioside can be solubilized after extended stirring, the amount of time required to prepare these higher concentration rebaudioside D solutions is impractical on a commercial scale. Similarly, while an 8000 ppm aqueous rebaudioside D solution can be prepared by heating rebaudioside D in water to nearly 100° C. for two hours, cooling the solution results in recrystallization, making the solution impractical to work with on a commercial manufacturing scale.
# For example, in certain embodiments, rebaudioside D solubility can be increased 50 fold, for example, from about 200 ppm (0.02 weight percent) up to about 10,000 ppm (1 weight percent), when a 1 weight percent rebaudioside D suspension is combined with sufficient stevioside to produce a 50,000 ppm (5 weight percent) steviol glycoside solution. In other embodiments, even greater increases in rebaudioside D solubility can be observed.
# [6] = Example 8: effect of temperature on solubility (appearance, turbidity); format: physicochemical
# Protocol: as §1
# Aqueous samples containing the amounts of rebaudioside D and stevioside listed in Table 3 were prepared by combining the noted amounts of rebaudioside D and stevioside in water. The samples were then warmed to the temperatures noted in the table.
# The appearance of all the samples prepared as above was noted and turbidity measurements were taken to track solubility.
# [7] = Example 1: room temperature rebaudioside D solubility (turbidity); format: physicochemical; conditions: 0.02 to 1.5 weight percent, ambient temperature, FIG. 1
# Protocol: as §1
# Rebaudioside D was added to a number of beakers in increasing concentrations (0.02 weight percent, 0.04 weight percent, 0.1 weight percent, 0.5 weight percent, 1 weight percent, and 1.5 weight percent) at ambient temperature. Turbidity measurements were taken to track solubility in the various samples and the results were plotted (FIG. 1).
# [8] = Example 9: HPLC analysis of aqueous filtrate after centrifugation and filtration; format: physicochemical; conditions: rebaudioside B added at 0.4% to stevioside/rebaudioside D solution, centrifuged, filtered
# Protocol: To confirm that the cloudiness observed in samples comprising rebaudioside B was due to the rebaudioside B itself, a solution of stevioside and rebaudioside D was prepared and rebaudioside B was added at a concentration of 0.4% to form a cloudy suspension. The sample was centrifuged and filtered and the aqueous filtrate was analyzed by HPLC. […] Thus, the cloudiness observed with the addition of rebaudioside B was due to the insolubility of rebaudioside B itself, and not due to the degradation of the rebaudioside D/stevioside complex.
molecule,measurement,setting,value
C=C1C[C@@]23CC[C@H]4[C@@](C)(CCC[C@@]4(C)C(=O)O[C@@H]4O[C@H](CO)[C@@H](O)[C@H](O)[C@H]4O)[C@@H]2CC[C@]1(O[C@@H]1O[C@H](CO)[C@@H](O)[C@H](O[C@@H]2O[C@H](CO)[C@@H](O)[C@H](O)[C@H]2O)[C@H]1O[C@@H]1O[C@H](CO)[C@@H](O)[C@H](O)[C@H]1O)C3 [rebaudioside A],effect of added steviol glycoside on rebaudioside D solubility,[1],no effect
same,effect of adding the steviol glycoside on rebaudioside D's solubility,[2],does not affect rebaudioside D's solubility
same,effect on solubility of rebaudioside D,"[3]; 5:1 mixture with rebaudioside D, 1.4 weight percent rebaudioside D, low shear 10 minutes, at each of 21° C., 45° C. and 65° C.",neither rebaudioside A nor the rebaudioside A/stevioside composition including 30 weight percent stevioside enhanced the solubility of rebaudioside D
same,effect on solubility of rebaudioside D,"[3]; 10:1 mixture with rebaudioside D, 1.43 weight percent rebaudioside D, low shear",did not enhance the solubility of rebaudioside D
C=C1C[C@@]23CC[C@H]4[C@@](C)(CCC[C@@]4(C)C(=O)O[C@@H]4O[C@H](CO)[C@@H](O)[C@H](O)[C@H]4O[C@@H]4O[C@H](CO)[C@@H](O)[C@H](O)[C@H]4O)[C@@H]2CC[C@]1(O[C@@H]1O[C@H](CO)[C@@H](O)[C@H](O[C@@H]2O[C@H](CO)[C@@H](O)[C@H](O)[C@H]2O)[C@H]1O[C@@H]1O[C@H](CO)[C@@H](O)[C@H](O)[C@H]1O)C3 [rebaudioside D],solubility in water,[4]; 0.5 weight percent sample at 70° C.,soluble
same,turbidity,[4]; 1 and 1.5 weight percent samples at 70° C.,"about 12,000 NTU"
same,aqueous rebaudioside D solution that can be prepared by heating,[5],8000 ppm
same,solubility of rebaudioside D at 70° C. and on cooling,[6]; all four concentrations of rebaudioside D below 0.4,"dissolved at 70° C., but precipitated from solution when cooled unless stevioside was present"
same,solubility of rebaudioside D,"[6]; concentration of 0.1%, 20° C., even up to a 4:1 ratio of stevioside to rebaudioside D",insoluble
same,solubility in water at room temperature,[7],insoluble
C=C1C[C@@]23CC[C@H]4[C@@](C)(CCC[C@@]4(C)C(=O)O[C@@H]4O[C@H](CO)[C@@H](O)[C@H](O[C@@H]5O[C@H](CO)[C@@H](O)[C@H](O)[C@H]5O)[C@H]4O[C@@H]4O[C@H](CO)[C@@H](O)[C@H](O)[C@H]4O)[C@@H]2CC[C@]1(O[C@@H]1O[C@H](CO)[C@@H](O)[C@H](O[C@@H]2O[C@H](CO)[C@@H](O)[C@H](O)[C@H]2O)[C@H]1O[C@@H]1O[C@H](CO)[C@@H](O)[C@H](O)[C@H]1O)C3 [rebaudioside M],effect of added steviol glycoside on rebaudioside D solubility,[1],no effect
same,effect of adding the steviol glycoside on rebaudioside D's solubility,[2],does not affect rebaudioside D's solubility
C=C1C[C@@]23CC[C@H]4[C@@](C)(CCC[C@@]4(C)C(=O)O[C@@H]4O[C@H](CO)[C@@H](O)[C@H](O)[C@H]4O)[C@@H]2CC[C@]1(O[C@@H]1O[C@H](CO)[C@@H](O)[C@H](O)[C@H]1O[C@@H]1O[C@H](CO)[C@@H](O)[C@H](O)[C@H]1O)C3 [stevioside],effect of added steviol glycoside on rebaudioside D solubility,[1],clear mixture
rebaudioside B,share of the amount initially added contained in the aqueous filtrate,[8],65%
same,solubility,[2],insoluble
same,appearance after adding the steviol glycoside,[2]; added at or over 0.2% to stevioside/rebaudioside D solution,cloudy solution
rebaudioside C,turbidity,"[1]; 1 weight percent rebaudioside D in water, ambient temperature, rebaudioside D to added steviol glycoside 1:5 by weight, FIG. 3",about 1000 NTU
same,effect of adding the steviol glycoside on rebaudioside D's solubility,[2],does not affect rebaudioside D's solubility

# From US11998033B2, “Sweetening compositions” (PepsiCo, Inc., priority 2016, dated 2024)
